# Results published in patent US7491415B2 (priority 2005, dated 2009).
# Values joined by “and” are separate entries in the source; they are usually repeats but may differ in a detail not shown here. Equal entries are not always repeated. Where two headings read alike, the source gives them in different places.
# Experiments:
# Alternaria kikuchiana = experiment: microbe, parasite or virus in culture; assay type: cell-based
# Botrytis cinerea = experiment: microbe, parasite or virus in culture; assay type: cell-based
# [1] = tested on: Colletotrichum lagenarium; experiment: microbe, parasite or virus in culture; assay type: cell-based; details: Colletotrichum orbiculare
# Fusarium oxysporum = experiment: microbe, parasite or virus in culture; assay type: cell-based
# Magnaporthe grisea [2] = experiment: microbe, parasite or virus in culture; assay type: cell-based; details: Pyricularia oryzae
# Pythium ultimum = experiment: microbe, parasite or virus in culture; assay type: cell-based; details: Globisporangium ultimum
# Rhizoctonia solani = experiment: microbe, parasite or virus in culture; assay type: cell-based
# Magnaporthe grisea [3] = assay type: in vivo; details: RCB rice blast, infected leaf area after 7 days
# Corticium sasaki = assay type: in vivo; details: after 8 days
# Phytophthora infestans = assay type: in vivo; details: for In vivo control values: TLB tomato late blight, after 4 days
# Puccinia recondita = assay type: in vivo
# [4] = Acute toxicity test, oral, mice; assay type: in vivo; details: male, mouse, in vivo, ICR mice, single administration, 7 days observation
# Experimental: (§1) To perform an acute toxicity test of Chloranthus henryi extract and the sesquiterpene compound of formula (1), 6-week-old ICR mice (♂, 25 g, Korean Bio Corp.) were divided into 4 groups with two mice per each group, and raised under the condition of 22±3° C., 55±10% (humidity), 12L/12D (intensity of illumination). The mice were adapted for 1 week, and freely fed with foods for test animals (Jeil Feed Corp., Korea, for mouse and rat) and sterilized water.
# (§2) Chloranthus henryi extract and the sesquiterpene compound of formula (1) were dissolved in a small amount of dimethyl sulfoxide (DMSO), and diluted with 1% carboxylmethyl cellulose. Four groups of mice were orally administered with 540 mg/kg, 180 mg/kg, 60 mg/kg and 20 mg/kg, respectively. Control group was administered with 1% carboxylmethyl cellulose. For 7 days after the administration, the presence of side effects or mortality was observed as follows. […] The changes in clinical signs and mortality of animals after administration were observed twice everyday for 7 days, i.e., in the morning and in the afternoon.
# (§3) Further, the internal organs of the dead mice were examined through macroscopic observation after necropsy on the 7th day. The change in body weight of animals by Chloranthus henryi extract and sesquiterpene compound of formula (1) was observed everyday after administration.
# ICR mice = experiment: Acute toxicity test, oral, mice; assay type: in vivo
# Experimental: as §1, §2, §3
smiles,measurement,setting,value
C/C=C(\C)C(=O)OC[C@]1(O)[C@H]2C[C@H]2[C@]2(C)[C@@H]3CC4=C5[C@H](/C(=C(\C)C(=O)OC)C(=O)[C@H](O)[C@@]5(C)[C@@H]5C[C@H]45)[C@@]34OC(=O)C(COC(C)=O)=C4C[C@@H]12 [CHE-23C],MIC,Alternaria kikuchiana,8 µg/mL
same,MIC,Botrytis cinerea,8 µg/mL
same,MIC,[1],8 µg/mL
same,MIC,Fusarium oxysporum,16 µg/mL
same,MIC,Magnaporthe grisea [2],4 µg/mL
same,MIC,Pythium ultimum,1 µg/mL
same,MIC,Rhizoctonia solani,16 µg/mL
same,In vivo control values,Magnaporthe grisea [3]; 11 ppm spray,67%
same,In vivo control values,Magnaporthe grisea [3]; 33 ppm spray,50%
same,In vivo control values,Magnaporthe grisea [3]; 100 ppm spray,72%
same,In vivo control values,Corticium sasaki,69% and 50%
same,control values in the greenhouse experiments (in words),"Phytophthora infestans; Phytophthora infestans, greenhouse",potent control values
same,In vivo control values,Phytophthora infestans; 11 ppm spray,29%
same,In vivo control values,Phytophthora infestans; 33 ppm spray,91%
same,In vivo control values,Phytophthora infestans; 100 ppm spray,93%
same,In vivo control values,Puccinia recondita; after 7 days,100% and 87% and 80%
same,control values in the greenhouse experiments (in words),Puccinia recondita; in vivo,potent control values
same,LD50 at 7 days,[4],> 540 mg/kg
same,mortality in the maximum dosage group,"ICR mice; 540 mg/kg, 7 days",all the mice in the maximum dosage group (540 mg/kg) survived
same,gross findings caused by the test materials,"ICR mice; 20-540 mg/kg, all treated groups, necropsy on the 7th day",no significant gross findings
